Experimental findings from article PMC5071672 (2016) are described below.

Structures are written as SMILES.

For experiment [1], the system named is duplex-[(dGdC)12·(dGdC)12] (DNA, duplex) GCGCGCGCGCGCGCGCGCGCGCGC
The experiment in a line: fluorescence titration. The conditions noted are these: 100 mM KCl, 25 mM MOPS, 1 mM EDTA, pH 7.1, 20 °C (text: 25 °C), apparent, per site, MIS model.

The test system of experiment [2] is 22AG (DNA, G4) AGGGTTAGGGTTAGGGTTAGGG
The experiment in a line: ITC. The conditions noted are these: 100 mM KCl; 25 mM MOPS, 1 mM EDTA, pH 7.1, 25 °C; site 1 of 2.

Experiment [3] shares this test system. The experiment in a line: UV/visible titration. The conditions noted are these: 100 mM KCl, 25 mM MOPS, 1 mM EDTA, pH 7.1, 20 °C (text: 25 °C), apparent, per site, MIS model.
For experiment [4], the system named is c-myc (DNA, G4) TGAGGGTGGGTAGGGTGGGTAA
The experiment in a line: ITC. The conditions noted are these: 100 mM KCl; 25 mM MOPS, 1 mM EDTA, pH 7.1, 25 °C; site 1 of 2; nB restricted to 2.

Experiment [5] has as its system duplex-[(dAdT)12·(dAdT)12] (DNA, duplex) ATATATATATATATATATATATAT
The experiment in a line: fluorescence titration. The conditions noted are these: 100 mM KCl; 25 mM MOPS, 1 mM EDTA, pH 7.1, 20 °C (text: 25 °C); 2 µM ligand; affinity printed as negligible.

Experiment [6] shares this test system. The experiment in a line: ITC. The conditions noted are these: 100 mM KCl; 25 mM MOPS, 1 mM EDTA, pH 7.1, 25 °C; too weak to be analysed.
Experiment [7] relates to duplex-[(dGdC)12·(dGdC)12] (DNA, duplex) GCGCGCGCGCGCGCGCGCGCGCGC
The experiment in a line: UV/visible titration. The conditions noted are these: 100 mM KCl, 25 mM MOPS, 1 mM EDTA, pH 7.1, 20 °C (text: 25 °C), apparent, per site, MIS model.

Experiment [8] deals with 22AG (DNA, G4) AGGGTTAGGGTTAGGGTTAGGG
The experiment in a line: fluorescence titration. The conditions noted are these: 100 mM KCl, 25 mM MOPS, 1 mM EDTA, pH 7.1, 20 °C (text: 25 °C), apparent, per site, MIS model.

In experiment [9] the test system is duplex-[(dGdC)12·(dGdC)12] (DNA, duplex) GCGCGCGCGCGCGCGCGCGCGCGC
The experiment in a line: ITC. The conditions noted are these: 100 mM KCl; 25 mM MOPS, 1 mM EDTA, pH 7.1, 25 °C; site 1 of 2; ill-defined, SI favours higher value.

For experiment [10], the system named is duplex-[(dAdT)12·(dAdT)12] (DNA, duplex) ATATATATATATATATATATATAT
The experiment in a line: UV/visible titration. The conditions noted are these: 100 mM KCl; 25 mM MOPS, 1 mM EDTA, pH 7.1, 20 °C (text: 25 °C); 2 µM ligand; affinity printed as negligible.

The test system of experiment [11] is c-myc (DNA, G4) TGAGGGTGGGTAGGGTGGGTAA
The experiment in a line: fluorescence titration. The conditions noted are these: 100 mM KCl, 25 mM MOPS, 1 mM EDTA, pH 7.1, 20 °C (text: 25 °C), apparent, per site, MIS model.

The test system is the same in experiment [12]. The experiment in a line: UV/visible titration. The conditions noted are these: 100 mM KCl, 25 mM MOPS, 1 mM EDTA, pH 7.1, 20 °C (text: 25 °C), apparent, per site, MIS model.

Take `C[n+]1cccc(-c2cc3c4cc(-c5ccc[n+](C)c5)c5nc(C(F)(F)C(F)(F)C(F)(F)F)nc6c(-c7ccc[n+](C)c7)cc(c7cc(-c8ccc[n+](C)c8)c8nc(C(F)(F)C(F)(F)C(F)(F)F)nc2c8c37)c4c56)c1`: the K b entry in [1] is “(2.6±0.7) × 10^6 M^-1”; in experiment [3], “(8.4±2.2) × 10^6 M^-1”; in [7], “(2.6±0.9) × 10^6 M^-1”; in experiment [8] it was “(1.2±0.2) × 10^6 M^-1”; in experiment [11], “(23.1±5.9) × 10^6 M^-1”; in experiment [12], “(23.8±7.3) × 10^6 M^-1”. Also, the “K A” value in [2] is on record as 3.8×10^6 (<36×10^6) M^-1; in experiment [4], 1.3×10^7 (>0.4×10^7) M^-1; in experiment [9] it was 1.2×10^5 (<8×10^6) M^-1. For the same compound, the binding result in experiment [5], in experiment [6] and in experiment [10] was “weak” each time.
